Results published in patent US7981838B2, “Defoliant” (Bayer CropScience AG, priority 2007, dated 2011).

Test system: Cotton plants of the cultivar "Linda"
Experiment: Leaf drop (defoliation) test on cotton plants in climatized chamber, spray application
Format: in vivo
Details: 300 l/ha water
Procedure: A water application rate of 300 l/ha was initially charged. The components herbicide and adjuvant were then added with stirring at the application rates and in the manner stated in table 1, such that a homogeneous spray liquor was formed. Here, the active ingredients were employed as suspension concentrates. The adjuvant used was Agrotin® (Bayer CropScience).
Cotton seeds of the cultivar “Linda” were sown at a depth of 1 cm and cultivated in a climatized chamber (16 h of light, temperature during the day: 26° C., at night: 20° C.) until they had reached the 8-10 leaf stage.
The plants were treated on a laboratory spray track with spray liquors of thidiazuron and thidiazuron with combination partners. The water application rate for the spray application was 300 l/ha. After the treatment, the plants were returned to the climatized chamber.
1, 2 and 4 weeks after the application, the leaf drop effect was evaluated according to a scale from 0 to 100%: • 0%=no noticeable effect compared to untreated plants • 100%=all leaves have dropped. 2.2 Results for the Combinations of (A) TDZ with (B) Cyprosulfamide

[1] = Table 2, dose 200 g of a.i./ha, 0.2% by weight of Agrotin added
[2] = Table 2, dose 25 g of a.i./ha, 0.2% by weight of Agrotin added

Compound | Leaf drop [%] 2 weeks after application (Table 1, dose 100 g of a.i./ha, 1 l of Agrotin added, scale 0-100%) | Leaf drop [%] 2 weeks after application (Table 1, dose 200 g of a.i./ha, 1 l of Agrotin added, scale 0-100%) | Leaf drop [%] 1 week after application [1] | Leaf drop [%] 2 weeks after application [1] | Leaf drop [%] 4 weeks after application [1] | Leaf drop [%] 2 weeks after application (Table 1, dose 35 g of a.i./ha, 1 l of Agrotin added, scale 0-100%) | Leaf drop [%] 1 week after application [2] | Leaf drop [%] 2 weeks after application [2] | Leaf drop [%] 4 weeks after application [2]
COc1ccccc1C(=O)NS(=O)(=O)c1ccc(C(=O)NC2CC2)cc1 [Cyprosulfamide, 4-cyclopropylaminocarbonyl-N-(2-methoxybenzoyl)benzenesulfonamide] | 7% | 0% | 0% | 0% | 0% | – | – | – | –
O=C(Nc1ccccc1)Nc1cnns1 [TDZ, thidiazuron] | – | – | – | – | – | 67% | 37% | 56% | 63%
